Measured values as given in PMC8346516 (Nature Communications, 2021).

Target: T1, Lsm12 (Homo sapiens, UniProt Q3MHD2)
T1 construct: hLsm12-HisE.coli: 6×His-tagged human Lsm12 (195 residues in full length) purified from E. coli
Test: competition […]-NAADP radioligand binding with purified protein; also competition pull-down with immobilized NAADP (Kd […])

T1 sequence (Q3MHD2 whole entry): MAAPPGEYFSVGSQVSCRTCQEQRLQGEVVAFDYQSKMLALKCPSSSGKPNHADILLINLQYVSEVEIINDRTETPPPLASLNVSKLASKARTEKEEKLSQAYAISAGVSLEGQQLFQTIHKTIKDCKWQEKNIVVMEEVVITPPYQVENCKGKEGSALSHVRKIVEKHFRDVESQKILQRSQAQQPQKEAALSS

Kd: ~20 nM
Compound: Nc1ncnc2c1ncn2[C@@H]1O[C@H](COP(=O)(O)OP(=O)(O)OC[C@H]2O[C@@H]([n+]3cccc(C(=O)[O-])c3)[C@H](O)[C@@H]2O)[C@@H](O)[C@H]1OP(=O)(O)O [NAADP]
